Laboratory results reported in patent US11285135B2 (AMGEN INC., priority 2016, dated 2022).

These compounds were tested against GDP-bound protein (aa 1-169), containing both G12C and C118A amino acid substitutions (Homo sapiens, UniProt P01116, C118A/G12C) (assay: Coupled Nucleotide Exchange Assay (SOS-mediated nucleotide exchange, AlphaScreen)). Settings: 2 hours compound pre-incubation.
Format: biochemical
Experimental: Coupled Nucleotide Exchange Assay: Purified GDP-bound […] protein (aa 1-169), containing both G12C and C118A amino acid substitutions and an N-terminal His-tag, was pre-incubated with a compound dose-response titration for 2 hours in assay buffer (25 mM HEPES pH 7.4, 10 mM MgCl2, and 0.01% Triton X-100). Following compound pre-incubation, purified SOS protein (aa 564-1049) and GTP (Roche 10106399001) were added to the assay wells and incubated for an additional hour. […] The assay plates were then read on a PerkinElmer EnVision Multilabel Reader, using AlphaScreen® technology, and data were analyzed using a 4-parameter logistic model to calculate IC50 values.

GDP-bound protein (aa 1-169), containing both G12C and C118A amino acid substitutions, sequence (P01116 1-169 isoform P01116-2 G12C/C118A): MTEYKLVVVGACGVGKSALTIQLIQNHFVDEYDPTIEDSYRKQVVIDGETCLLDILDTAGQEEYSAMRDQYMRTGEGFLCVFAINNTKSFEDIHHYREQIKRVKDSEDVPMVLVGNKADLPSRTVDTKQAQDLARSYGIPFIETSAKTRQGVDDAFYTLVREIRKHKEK

Row | Coupled exchange IC50 [µM] | Compound
1 | >250 | C=CC(=O)N1CC2(C1)CN(c1snc3c(F)c(-c4cc(OC)cc5ccccc45)c(Cl)cc13)C2 [Example 4-3, 1-(6-(5-chloro-7-fluoro-6-(3-methoxy-1-naphthalenyl)-2,1-benzothiazol-3-yl)-2,6-diazaspiro[3,3]heptan-2-yl)-2-propen-1-one]
2 | >250 | C=CC(=O)NC1CN(c2snc3c(F)c(Br)c(Cl)cc23)C1 [Example 4-4, N-(1-(6-bromo-5-chloro-7-fluoro-2,1-benzothiazol-3-yl)-3-azetidinyl)-2-propenamide]
3 | >250 | C=CC(=O)NC1CN(c2snc3c(F)c(-c4cc(OC)cc5ccccc45)c(Cl)cc23)C1 [Example 4-5, N-(1-(5-chloro-7-fluoro-6-(3-methoxy-1-naphthalenyl)-2,1-benzothiazol-3-yl)-3-azetidinyl)-2-propenamide]
4 | 125 | C=CC(=O)N1CC(Nc2snc3c(F)c(Br)c(Cl)cc23)C1 [Example 4-7, 1-(3-((6-bromo-5-chloro-7-fluoro-2,1-benzothiazol-3-yl)amino)-1-azetidinyl)-2-propen-1-one]
5 | 177 | C=CC(=O)N1CCC[C@@H](Nc2snc3c(F)c(Br)c(Cl)cc23)C1 [Example 4-8, 1-((3R)-3-((6-bromo-5-chloro-7-fluoro-2,1-benzothiazol-3-yl)amino)-1-piperidinyl)-2-propen-1-one]
6 | >250 | C=CC(=O)N1CCC[C@@H](Nc2snc3c(F)c(-c4cc(O)cc5ccccc45)c(Cl)cc23)C1 [Example 4-9, 1-((3R)-3-((5-chloro-7-fluoro-6-(3-hydroxynaphthalen-1-yl)benzo[c]isothiazol-3-yl)amino)piperidin-1-yl)prop-2-en-1-one]
7 | 14.2 | C=CC(=O)NC1(C)CN(c2snc3c(F)c(-c4cc(O)cc5ccccc45)c(Cl)cc23)C1 [Example 5-2, N-(1-(5-chloro-7-fluoro-6-(3-hydroxy-1-naphthalenyl)-2,1-benzothiazol-3yl)-3-methyl-3-azetidinyl)-2-propenamide]
8 | 14.2 | C=CC(=O)NC1(CO)CN(c2snc3c(F)c(-c4cc(O)cc5ccccc45)c(Cl)cc23)C1 [Example 5-3, N-(1-(5-chloro-7-fluoro-6-(3-hydroxy-1-naphthalenyl)-2,1-benzothiazol-3-yl)-3-(hydroxymethyl)-3-azetidinyl)-2-propenamide]
9 | 5.31 | C=CC(=O)N1CCN(c2snc3c(F)c(-c4ncccc4Cl)c(Cl)cc23)CC1 [Example 6-2, 1-(4-(5-chloro-6-(3-chloro-2-pyridinyl)-7-fluoro-2,1-benzothiazol-3-yl)-1-piperazinyl)-2-propen-1-one]
10 | 24.5 | C=CC(=O)N1CCN(c2nnc(-c3ccccc3C)c3cc(-c4c(O)cccc4F)c(Cl)cc23)CC1 [Example 10-1, 1-(4-(7-Chloro-6-(2-fluoro-6-hydroxyphenyl)-4-(2-methylphenyl)-1-phthalazinyl)-1-piperazinyl)-2-propen-1-one]
11 | 15.1 | C=CC(=O)N1CCN(c2nnc(Cl)c3cc(-c4c(O)cccc4F)c(Cl)cc23)CC1 [Example 10-13, 1-(4-(4,7-dichloro-6-(2-fluoro-6-hydroxyphenyl)-1-phthalazinyl)-1-piperazinyl)-2-propen-1-one]
12 | 2.69 | C=CC(=O)N1CCN(c2nnc(C3CCCC3)c3cc(-c4c(O)cccc4F)c(Cl)cc23)CC1 [Example 14, 1-(4-(7-Chloro-4-cyclopentyl-6-(2-fluoro-6-hydroxyphenyl)-1-phthalazinyl)-1-piperazinyl)-2-propen-1-one]
13 | 2.56 | C=CC(=O)N1CCN(c2nnc(N3CCCCC3)c3cc(-c4c(O)cccc4F)c(Cl)cc23)CC1 [Example 15, 1-(4-(7-Chloro-6-(2-fluoro-6-hydroxyphenyl)-4-(1-piperidinyl)-1-phthalazinyl)-1-piperazinyl)-2-propen-1-one]
